# In patent publication US20260210856A1, “CONJUGATED OLIGOELECTROLYTES WITH BORON-DIPYRROMETHENE CORES AND METHODS THEREOF” (National University of Singapore, priority 2022, published 2026):
# Tests used:
# [1] = Photophysical properties in PBS and in SUVs (POPC:POPG 85:15); type: physicochemical
# Excerpt: The photophysical properties of the COE-BY series were studied in phosphate-buffered saline (PBS) and within model lipid bilayers. Small unilamellar vesicles (SUVs) composed of 1-palmitoyl-2-oleoyl-glycero-3-phosphocholine (POPC) and 1-palmitoyl-2-oleoyl-sn-glycero-3-phospho-(1′-rac-glycerol) sodium (POPG) (85:15, mol/mol) were used to simulate the lipid environment in cell membranes. The absorption spectra in PBS for all compounds feature a main peak at ~550 nm, reflecting the presence of the BODIPY subunit (FIG. 9A). One also observes a 5-10 nm red-shift of lowest energy absorption peak with increasing electron-withdrawing strength of the phenyl substituents.
# Upon inserting into lipid bilayers, the fluorescence intensity increases over 27-fold for COE-BYPhMe, 30-fold for COE-BYPhOC4, 35-fold for COE-BYPhCN and 40-fold for COE-BYPhNO, relative to the values measured in PBS (FIG. 1c and FIG. S5). The increase in emission intensity reflects a transition to a more rigid and hydrophobic environment. Quantum yields increase to 32% for COE-BYPhMe, 60% for COE-BYPhOC4, 13% for COE-BYPhCN, and 10% for COE-BYPhNO in SUVs from 1% for COE-BYPhMe, 3% for COE-BYPhOC4, and 0.5% for COE-BYPhCN in PBS. The QY of COE-BYPhNO in PBS cannot be accurately determined by using a conventional fluorometer due to its weak fluorescence. The maximum emission wavelengths are redshifted from 587/589 nm (COE-BYPhMe/OC4) to 605/611 nm (COE-BYPhCN/NO) as a result of the decreased HOMO-LUMO energy gaps. […] Furthermore, the fluorescence spectra of COE-BYs intercalated within SUVs show a narrow band at wavelengths between 587 nm and 611 nm, with a full width half maximum (FWHM) linewidth of 52-68 nm (Table 1).
# HeLa cells [2] = experiment: Time-dependent colocalization with organelle probes, confocal microscopy; type: cell-based
# Procedure: (b) Confocal image of A549 cells stained with 1 μM COE-BYPhOC4. Confocal images of (c) A549 and (d) HeLa cells. Cells were prestained with COE-BYPhOC4 (red) for 4 hours and then stained with commercial plasma membrane dye CellMask Deep Red (blue and green, respectively) for 5 min. (e) Confocal images for time-dependent colocalization experiments. HeLa cells were stained with 1 μM COE-BYPhOC4 with different incubation times (2 h, 8 h, 24 h and 48 h). Cells were imaged in multiple channels to collect fluorescence signals from COE-BYPhOC4 and other commercial organelle dyes. Red: COE-BYPhOC4; the first column green: CellLight Early Endosome-GFP; the second column green: CellLight Late Endosome-GFP; the third column deep blue: CellLight Lysosomes-GFP; the fourth column sky blue: HCS LipidTOX™ Deep Red; the fifth column yellow: MitoTracker Deep Red. Scale bar: 5 μm.
# Insights into the intracellular location of COE-BYPhOC4 at different time points were sought through colocalization experiments with a panel of common commercial organelle probes (CellLight Early Endosome-GFP, CellLight Late Endosome-GFP, CellLight Lysosomes-GFP, LipidTOX™ Deep Red, and MitoTracker Deep Red). To label the vesicles in the endocytic pathway with high specificity and avoid dye translocation associated with alkalinizing effects and equilibrium shifts after extended durations, we elected to use GFP-tagged markers that are definitive for each vesicle subtype, namely Rab5a, Rab7a, and Lamp-1 for early endosomes, late endosomes, and lysosomes respectively. […] Subsequently at 8 hours, the highest overlay can be observed from COEs and the late endosome marker. Prolonged incubation beyond this point further increased the degree of colocalization, from 0.73 at 8 hours to 0.95 at 48 h.
# HeLa cells [3] = experiment: Membrane tension imaging during endocytosis, 2P-FLIM; type: cell-based
# Procedure: We thus stained HeLa cells with COE-BYPhOC4 for different lengths of time and captured 2P-FLIM images of the cell state at specific intervals. For these studies, we correlated the time-dependent colocalization experiments with 2P-FLIM data to link τw with the identity of the vesicles. […] Time dependent colocalization with Rab5a allowed us a means of assigning the identities of the vesicles. At 2 hours, the blue and green vesicles in FLIM image were identified as early endosomes. Upon increasing staining time to 4 h, all COE-BYPhOC4 entered the cells with a further increase in τw, leading to a main yellow color. […] As previously analyzed from the colocalization images in FIG. 12, all the COEs resided exclusively within late endosomes at this point in time. […] This observation is potentially reflective of the different domains in endosomes.
# A549 cells = experiment: Confocal microscopy of stained cells; type: cell-based
# Procedure: A549 cells were stained for 5 minutes with 0.75 μM COE-BYPhMe (red channel) before imaging and Hoechst 33342 (blue channel).
# (§1) Our next objective was to study the cellular distribution of COE-BYPhOC4 series at different time points by conventional confocal microscopy.
# MDCK cells = experiment: Confocal microscopy of stained cells; type: cell-based; details: 1 μM, 10 minutes
# Excerpt: as §1
# [4] = Fluorescence imaging of stained GUVs; type: physicochemical; details: POPC GUV, normal light
# Excerpt: Giant unilamellar vesicles (GUVs) composed of 1-palmitoyl-2-oleoyl-glycero-3-phosphocholine (POPC) were chosen as the model membrane system for the initial studies because of their ideal size (diameter>1 μm) for imaging via optical microscopy. […] COE-BY series are thus embedded within the bilayer as membrane-spanning probes, a geometric consideration relevant to measuring membrane tension across the whole lipid bilayer, instead of a single leaflet.
smiles,measurement,setting,value
CCCCOc1ccc(C2=C3C(C)=C(c4ccc(/C=C/c5cc(OCCCCCC[N+](C)(C)C)c(OCCCCCC[N+](C)(C)C)c(OCCCCCC[N+](C)(C)C)c5)cc4)C(C)=[N+]3[B-](F)(F)n3c(C)c(-c4ccc(/C=C/c5cc(OCCCCCC[N+](C)(C)C)c(OCCCCCC[N+](C)(C)C)c(OCCCCCC[N+](C)(C)C)c5)cc4)c(C)c32)cc1.[I-].[I-].[I-].[I-].[I-].[I-] [COE-BYPhOC4],FWHM,"[1]; fluorescence spectra, intercalated within SUVs",56 nm
same,ΦF in PBS,[1]; in PBS,3%
same,λabs,[1]; in PBS,540 nm
same,λem in PBS,[1]; in PBS,602 nm
same,ΦF in SUVs,[1]; in SUVs,60%
same,λem in SUVs,[1]; in SUVs,589 nm
same,fluorescence intensity increase upon inserting into lipid bilayers,[1]; relative to the values measured in PBS,> 30 fold
same,degree of colocalization with late endosome marker,"HeLa cells [2]; 1 μM, 8 hours",0.73
same,degree of colocalization with late endosome marker,"HeLa cells [2]; 1 μM, 48 h",0.95
same,Pearson's correlation coefficient value (R) relative to GFP-tagged Rab5a (early endosome),"HeLa cells [2]; 1 μM, incubation 2 h",0.71
same,colocalization with lipid droplets and mitochondria markers,HeLa cells [2]; all timepoints,poor colocalization with lipid droplets and mitochondria markers at all timepoints
same,τw,"HeLa cells [3]; 8 to 24 h, red-orange vesicles",2.7-3.0 ns
same,τw,"HeLa cells [3]; 0.5 h, plasma membranes",≈ 1.5 ns
same,τw,"HeLa cells [3]; 0.5 h, regions beginning to be internalized",≈ 1.0 ns
same,τw,HeLa cells [3]; vesicles taken up earlier (green),2.0-2.4 ns
same,staining pattern,"A549 cells; A549, 1 μM, 10 minutes",strong fluorescence signals were observed on the plasma membranes
same,location of emission,A549 cells; incubation for 4 hours,predominantly intracellular emission
same,staining pattern,MDCK cells,strong fluorescence signals were observed on the plasma membranes
same,fluorescence of stained GUV,[4],strong uniform fluorescence
